Source: the NIST ThermoML archive (doi:10.1016/j.jct.2015.08.014)

Tests used:
[1] = 101.33 kPa, Liquid; for viscosity: Capillary tube (Ostwald / Ubbelohde) method; for mass density: Vibrating tube method
[2] = xn = mol fraction of the nth substance listed; settings: 100 kPa, Liquid, x2 = 0; for viscosity: Capillary tube (Ostwald / Ubbelohde) method; for mass density: Vibrating tube method

O=C1CCCO1 [γ-butyrolactone]
[1]
Settings	mass density [kg/m3]	viscosity [mPa·s]
273.15 K	1149.15	2.69
278.15 K	1144.23	2.43
283.15 K	1139.31	2.21
288.15 K	1134.4	2.02
293.15 K	1129.49	1.86
298.15 K	1124.59	1.71
303.15 K	1119.68	1.58
308.15 K	1114.78	1.47
313.15 K	1109.87	1.37
318.15 K	1104.96	1.28
323.15 K	1100.05	1.2
328.15 K	1095.14	–
333.15 K	1090.22	–

O=C1CCCO1 [γ-butyrolactone] + CCCC[N+]1(C)CCCC1.N#CN=C=[N-]
[2]
Settings	mass density [kg/m3]	viscosity [mPa·s]
273.15 K	1149.15	2.69
283.15 K	1139.31	2.21
293.15 K	1129.49	1.86
298.15 K	1124.59	1.71
303.15 K	1119.68	1.58
313.15 K	1109.87	1.37
323.15 K	1100.05	1.2
